The text below walks through data of patent publication US10252977B2, “Halogen-substituted phenoxyphenylamidines and the use thereof as fungicides” (priority 2015, dated 2019).

Data set [1] is described as follows: Photolysis stability test. The format is physicochemical. Conditions: dried film in MTP, irradiated at 30° C. and 480 W/m^2, up to 24 h, first order degradation assumed. Here is the method:
The stability towards photolysis of the phenylamidines described in the prior art is good but an improved stability towards photolysis may be an advantage as it could offer a longer lasting efficacy when applied to plants by foliar application. The improved stability towards photolysis was proven by a […] stability test as described below:
To produce a suitable preparation of active compound for the photolysis stability test, a 1000 ppm stock solution (1 mg/mL) of active compound in acetonitrile is prepared. Aliquots of 25 μL of this stock solution are pipetted in three wells of a Bio-one microtiter plate (MTP) UVStar 96 (Fa. Greiner, Art. No. 655801). The MTP is dried overnight in the dark and then irradiated at 30° C. and 480 W/m^2 with a UV irradiation device SUNTEST XLS+ or SUNTEST CPS (Fa. Atlas). The amount A of the active compound is analyzed by HPLC (UV-peak areas at 210 nm) at five points in time t: 0 h, 2 h, 4 h, 6 h, 24 h by using the following method: 200 μL acetonitrile is added in the respective well of the MTP and the MTP is sealed with a Bio-one sealing foil, viewseal 80/140 mm (Fa. Greiner, Art. No. 676070). The MTPs are sonicated for 3 minutes and analysed by HPLC. The half-life time (T1/2) of each active compound is calculated via linear regression by using the following equations (first order degradation assumed): […]
In table IV the results of the photolysis stability test are shown for the compounds (I-01) and (I-02). […] This increased chemical stability towards photolysis will be of advantage as it will offer a longer lasting efficacy when applied to plants by foliar application compared to known amidines. The data are to be seen merely by way of example and are not limiting for the purposes of the invention.

A further data set relates to soy bean plants. The experiment in a line: Plant compatibility test using soy bean plants. The format is in vivo. Conditions: soy bean young plants sprayed at 1000 ppm, evaluated 6 days after application; 0% no damages, 100% totally damaged. Here is the method: Plant Compatibility Test Using Soy Bean Plants • Solvent: 24.5 parts by weight of acetone • 24.5 parts by weight of dimethylacetamide • Emulsifier: 1 part by weight of alkylaryl polyglycol ether To produce a suitable preparation of active compound, 1 part by weight of active compound is mixed with the stated amounts of solvent and emulsifier, and the concentrate is diluted with water to the desired concentration. Young plants are sprayed with the preparation of active compound at the stated application rate. The plants are then placed in a greenhouse at approximately 21° C. and a relative atmospheric humidity of approximately 80%. The test is evaluated 6 days after application and comprises plant damages like leaf deformation, chlorosis, necrosis, shoot damage or stunting. The results are summarized in table V. 0% means no damages are observed, while 100% means that the plants are totally damaged.

Data set [2] in a line: Hydrolysis stability test in homogeneous aqueous solution. Conditions: 50° C., 24 hours, first order degradation assumed. Format: physicochemical. The procedure:
The chemical stability towards hydrolysis of the phenylamidines described in the prior art is good but an improved stability may be an advantage during the preparation and formulation processes in a large scale. The improved stability towards hydrolysis was proven by a hydrolysis stability test as described below: To produce a suitable preparation of active compound for the hydrolysis stability test, a 1000 ppm stock solution (1 mg/mL) of active compound in acetonitrile is prepared. Three aliquots of 100 μL are pipetted into HPLC vials and diluted with 750 μL acetonitrile. In each vial 850 μL of the appropriate buffer solution (pH4, pH7 and pH9, CertiPUR, Fa. Merck) is added. The buffer containing HPLC vials are incubated in a heated sample tray at 50° C. for 24 hours. The amount A of the active compound is analyzed by HPLC (UV-peak areas at 210 nm) at eight points in time t: 0 min, 140 min, 350 min, 560 min, 770 min, 980 min, 1190 min, 1400 min. The half-life time (T1/2) of each active compound is calculated via linear regression by using the following equations (first order degradation assumed): In table III the results of the hydrolysis stability test are shown for the compounds (I-01), (I-02), (I-03), (I-04) and (I-05) at various pH-values. […] 337 known from WO2008/110278. […] This increased stability will be of advantage during the preparation and formulation processes in a large scale compared to known amidines. The data are to be seen merely by way of example and are not limiting for the purposes of the invention.

For another data set, the system named is Phakopsora pachyrhizi. In words: In vivo preventive test on Phakopsora (soybeans). Conditions: 7 days after inoculation. Here is the method:
To produce a suitable preparation of active compound, 1 part by weight of active compound is mixed with the stated amounts of solvent and emulsifier, and the concentrate is diluted with water to the desired concentration. To test for preventive activity, young plants are sprayed with the preparation of active compound at the stated rate of application. After the spray coating has dried on, the plants are inoculated with an aqueous spore suspension of the causal agent of soybean rust (Phakopsora pachyrhizi) and stay for 24 h without light in an incubation cabinet at approximately 24° C. and a relative atmospheric humidity of 95%. The plants remain in the incubation cabinet at approximately 24° C. and a relative atmospheric humidity of approximately 80% and a day/night interval of 12 h.

Data set [3] in a line: Log P by HPLC on reversed phase columns (EEC directive 79/831 Annex V.A8). The format is physicochemical. Conditions: LC-UV. The procedure: Measurement of Log P values was performed according to EEC directive 79/831 Annex V.A8 by HPLC (High Performance Liquid Chromatography) on reversed phase columns with the following methods: • ^[a] Log P value is determined by measurement of LC-UV, in an acidic range, with 0.1% formic acid in water and acetonitrile as eluent (linear gradient from 10% acetonitrile to 95% acetonitrile). • [b] Log P value is determined by measurement of LC-UV, in a neutral range, with 0.001 molar ammonium acetate solution in water and acetonitrile as eluent (linear gradient from 10% acetonitrile to 95% acetonitrile). […] Lambda-max-values were determined using UV-spectra from 200 nm to 400 nm and the peak values of the chromatographic signals.

In a further data set the test system is Pyrenophora teres. In words: In vivo preventive test on Pyrenophora teres (net blotch on barley). The conditions noted are these: 500 ppm of active ingredient, 14 days after inoculation. The procedure:
(§1) • Solvent: 5% by volume of Dimethyl sulfoxide • 10% by volume of Acetone • Emulsifier: 1 μl of Tween® 80 per mg of active ingredient
(§2) The active ingredients are made soluble and homogenized in a mixture of Dimethyl sulfoxide/Acetone//Tween® 80 and then diluted in water to the desired concentration.
The young plants of barley are treated by spraying the active ingredient prepared as described above. Control plants are treated only with an aqueous solution of Acetone/Dimethyl sulfoxide/Tween® 80.
After 24 hours, the plants are contaminated by spraying the leaves with an aqueous suspension of Pyrenophora teres spores. The contaminated barley plants are incubated for 48 hours at 20° C. and at 100% relative humidity and then for 12 days at 20° C. and at 70-80% relative humidity.
The test is evaluated 14 days after the inoculation. 0% means an efficacy which corresponds to that of the control plants while an efficacy of 100% means that no disease is observed.

Another data set relates to Puccinia recondita. In words: In vivo preventive test on Puccinia recondita (brown rust on wheat). Conditions: 500 ppm of active ingredient, 11 days after inoculation. Here is the method: as §1, §2
(§3) The young plants of wheat are treated by spraying the active ingredient prepared as described above. Control plants are treated only with an aqueous solution of Acetone/Dimethyl sulfoxide/Tween® 80.
After 24 hours, the plants are contaminated by spraying the leaves with an aqueous suspension of Puccinia recondita spores. The contaminated wheat plants are incubated for 24 hours at 20° C. and at 100% relative humidity and then for 10 days at 20° C. and at 70-80% relative humidity.
The test is evaluated 11 days after the inoculation. 0% means an efficacy which corresponds to that of the control plants while an efficacy of 100% means that no disease is observed.

The next data set concerns Septoria tritici. In words: In vivo preventive test on Septoria tritici (leaf spot on wheat). Conditions: 500 ppm of active ingredient, 24 days after inoculation. The procedure:
as §1, §2, §3
After 24 hours, the plants are contaminated by spraying the leaves with an aqueous suspension of Septoria tritici spores. The contaminated wheat plants are incubated for 72 hours at 18° C. and at 100% relative humidity and then for 21 days at 20° C. and at 90% relative humidity.
The test is evaluated 24 days after the inoculation. 0% means an efficacy which corresponds to that of the control plants while an efficacy of 100% means that no disease is observed.

The mark [4] stands for this setting: buffer pH 7/acetonitrile, read-out: T1/2 (pH 7) (converted).
Where [5] appears, read: buffer pH 9/acetonitrile, read-out: T1/2 (pH 9) (converted).
The mark [6] stands for this setting: acidic range, 0.1% formic acid in water and acetonitrile as eluent, read-out: LogP [a].
The mark [7] stands for this setting: neutral range, 0.001 molar ammonium acetate solution in water and acetonitrile as eluent, read-out: LogP [b].

Like-named read-outs stand apart in the source and are kept apart here.

In data set [1], `CCN(C)/C=N/c1cc(C)c(Oc2ccccc2)cc1C` [Compound no. 1 known from WO2008/110313, reference compound] had a half-life of 10 h. This compound yielded a Necrosis in % with soy bean plants of 90%. In addition, the half-life at 58.8 µg/mL in data set [2] (setting [4]) is 24 h; in data set [2] (setting [5]) it was 16 h.
As for `CCN(C)/C=N/c1cc(Cl)c(Oc2ccccc2F)cc1C` [Example I-01, N′-[5-chloro-4-(2-fluorophenoxy)-2-methylphenyl]-N-ethyl-N-methylimidoformamide], the half-life in data set [1] is 32 h. Also, the Necrosis in % in the data set with soy bean plants turned out to be 50%. Moreover, the efficacy result with Phakopsora pachyrhizi (100 ppm of active ingredient) is “at least 70%”. For the same compound, the half-life at 58.8 µg/mL in data set [2] (setting [4]) was 67 h; in data set [2] (setting [5]) it was 60 h. Further, the figures for the chromatographic logP in data set [3] (setting [6]) and in data set [3] (setting [7]) were 1.64 and 4.56, respectively.
The compound `CCN(C)C=Nc1cc(Cl)c(Oc2ccccc2Br)cc1C` [Example I-02, N′-[4-(2-bromophenoxy)-5-chloro-2-methylphenyl]-N-ethyl-N-methylimidoformamide] displayed a half-life in data set [1] of more than 200 h. The efficacy result in the data set with Pyrenophora teres, in the data set with Puccinia recondita, in the data set with Septoria tritici and in the data set on Phakopsora pachyrhizi (10 ppm of active ingredient) was “at least 70%” throughout. Besides, the figures for the half-life at 58.8 µg/mL in data set [2] (setting [4]) and in data set [2] (setting [5]) were 70 h and 64 h, respectively. The figures for the chromatographic logP in data set [3] (setting [6]) and in data set [3] (setting [7]) were 1.86 and 5.13, respectively.
`CCN(C)C=Nc1cc(Cl)c(Oc2ccccc2Cl)cc1C` [Example I-03, N′-[5-chloro-4-(2-chlorophenoxy)-2-methylphenyl]-N-ethyl-N-methylimidoformamide] had a half-life in data set [1] of 59 h. The half-life at 58.8 µg/mL in data set [2] (setting [4]) is 63 h; in data set [2] (setting [5]) it was 53 h. In data set [3] (setting [6]), the chromatographic logP was 1.55.
The matching figures for `CCN(C)C=Nc1cc(C(F)(F)F)c(Oc2ccccc2F)cc1C` [Example I-04, N-ethyl-N′-[4-(2-fluorophenoxy)-2-methyl-5-(trifluoromethyl)phenyl]-N-methylimidoformamide]: more than 200 h, 83 h, 74 h and 1.72.
As for `CCN(C)C=Nc1cc(C(F)(F)F)c(Oc2ccccc2Br)cc1C` [Example I-05, N′-[4-(2-bromophenoxy)-2-methyl-5-(trifluoromethyl)phenyl]-N-ethyl-N-methylimidoformamide], the half-life in data set [1] is more than 200 h. Besides, the half-life at 58.8 µg/mL is 80 h in data set [2] (setting [4]) and 66 h in data set [2] (setting [5]). For the same compound, the chromatographic logP in data set [3] (setting [6]) was 1.9.
The matching figures for `CCN(C)C=Nc1cc(Cl)c(Oc2ccccc2I)cc1C` [Example I-06, N′-[5-chloro-4-(2-iodophenoxy)-2-methylphenyl]-N-ethyl-N-methylimidoformamide]: 34 h, 61 h, 55 h and 1.81.
With `Cc1cc(Oc2ccccc2Cl)c(Cl)cc1[N+](=O)[O-]` [VI-03, 1-chloro-2-(2-chlorophenoxy)-4-methyl-5-nitrobenzene], the chromatographic logP in data set [3] (setting [6]) is 4.51.
Still for that read-out and setting: then `Cc1cc(Oc2ccccc2Br)c(C(F)(F)F)cc1[N+](=O)[O-]` [VI-05, 1-(2-bromophenoxy)-5-methyl-4-nitro-2-(trifluoromethyl)benzene], with 4.64.
As to `Cc1cc(Oc2ccccc2Cl)c(Cl)cc1N` [VIII-03, 5-chloro-4-(2-chlorophenoxy)-2-methylaniline], in data set [3] (setting [6]), the chromatographic logP stood at 3.37.
On the same count and under the same terms, as for `Cc1cc(Oc2ccccc2Br)c(C(F)(F)F)cc1N` [VIII-05, 4-(2-bromophenoxy)-2-methyl-5-(trifluoromethyl) aniline], the figure is 3.68.
In the data set on soy bean plants, `CCN(C)/C=N/c1cc(C)c(Oc2ccccc2F)cc1C` [reference compound] showed a Necrosis in % of 90%. Also, the half-life at 58.8 µg/mL in data set [2] (setting [4]) was 25 h; in data set [2] (setting [5]), 17 h.
